Data: patent US20260191968A1, “PROTAC DEGRADERS OF MLLT1 AND/OR MLLT3” (DARK BLUE THERAPEUTICS LTD, priority 2024, published 2026)

Molecular target: T1, MLLT1 (Homo sapiens, UniProt Q03111)
T1 construct: host or cells: MV4-11
T1 sequence (Q03111 1-559): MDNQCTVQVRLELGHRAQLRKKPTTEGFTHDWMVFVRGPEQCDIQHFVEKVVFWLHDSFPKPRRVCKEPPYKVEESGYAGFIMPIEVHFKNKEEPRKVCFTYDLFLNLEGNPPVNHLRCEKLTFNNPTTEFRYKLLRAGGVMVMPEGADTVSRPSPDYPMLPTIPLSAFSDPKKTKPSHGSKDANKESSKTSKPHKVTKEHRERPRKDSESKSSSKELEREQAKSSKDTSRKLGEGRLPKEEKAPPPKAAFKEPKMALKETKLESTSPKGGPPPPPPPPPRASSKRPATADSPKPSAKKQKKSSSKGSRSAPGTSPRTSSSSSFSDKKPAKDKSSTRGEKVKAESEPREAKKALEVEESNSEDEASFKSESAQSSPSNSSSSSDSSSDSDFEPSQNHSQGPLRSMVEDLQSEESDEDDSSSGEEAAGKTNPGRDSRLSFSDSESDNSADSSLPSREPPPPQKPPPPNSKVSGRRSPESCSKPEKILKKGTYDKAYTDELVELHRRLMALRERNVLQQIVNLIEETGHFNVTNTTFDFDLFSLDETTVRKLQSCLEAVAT
Assay: MLLT1 degradation assay in MV4-11 cells (JESS chemiluminescent detection), three concentrations, 24 h
Format: cell-based
Settings: with respect to DMSO control
Outline: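 Read-out is % MLLT1 degradation versus DMSO, from band peak areas on a JESS chemiluminescent system. Cells (MV4-11) were exposed for 24 h at 37° C to three compound levels, 10, 100 and 1000 nM, in 0.1% DMSO.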

| Structure (SMILES) | MLLT1% Degradation @ 0.01 μM | MLLT1% Degradation @ 0.1 μM | MLLT1% Degradation @ 1 μM |
| --- | --- | --- | --- |
| Cc1cc(OC2CCN(c3ccc(C(=O)Nc4cc5[nH]c([C@H]6CCCN6C)cc5cn4)c(F)c3)CC2)ccc1-c1cccc2c1CN(C1CCC(=O)NC1=O)C2=O (stereo partly drawn) [Example 203, 4-(4-(4-(2-(2,6-dioxopiperidin-3-yl)-1-oxoisoindolin-4-yl)-3-methylphenoxy)piperidin-1-yl)-2-fluoro-N-(2-((R)-1-methylpyrrolidin-2-yl)-1H-pyrrolo[3,2-c]pyridin-6-yl)benzamide] | C (Category C: 25% ≤ C < 50% degradation) | C (Category C: 25% ≤ C < 50% degradation) | B (Category B: 50% ≤ B < 75% degradation) |
| CN1CCC[C@@H]1c1cc2cnc(NC(=O)c3ccc(CCCC4CCN(c5cccc6c5C(=O)N(C5CCC(=O)NC5=O)C6=O)CC4)cc3)cc2[nH]1 (stereo partly drawn) [Example 128, 4-(3-(1-(2-(2,6-dioxopiperidin-3-yl)-1,3-dioxoisoindolin-4-yl)piperidin-4-yl)propyl)-N-(2-((R)-1-methylpyrrolidin-2-yl)-1H-pyrrolo[3,2-c]pyridin-6-yl)benzamide] | C (Category C: 25% ≤ C < 50% degradation) | A (Category A: A ≥ 75% degradation) | A (Category A: A ≥ 75% degradation) |
| CN1CCC[C@@H]1c1cc2cnc(NC(=O)c3ccc(CCCC4CCN(c5cccc6c5CN(C5CCC(=O)NC5=O)C6=O)CC4)cc3)cc2[nH]1 (stereo in doubt) [Example 78, 4-(3-(1-(2-((rel-R)-2,6-dioxopiperidin-3-yl)-1-oxoisoindolin-4-yl)piperidin-4-yl)propyl)-N-(2-((R)-1-methylpyrrolidin-2-yl)-1H-pyrrolo[3,2-c]pyridin-6-yl)benzamide] | B (Category B: 50% ≤ B < 75% degradation) | A (Category A: A ≥ 75% degradation) | A (Category A: A ≥ 75% degradation) |
| CN1CCC[C@@H]1c1cc2cnc(NC(=O)c3ccc(CCCCC#Cc4ccc5c(c4)CN(C4CCC(=O)NC4=O)C5=O)cc3F)cc2[nH]1 (stereo partly drawn) [Example 223, 4-(6-(2-(2,6-dioxopiperidin-3-yl)-1-oxoisoindolin-5-yl)hex-5-yn-1-yl)-2-fluoro-N-(2-((R)-1-methylpyrrolidin-2-yl)-1H-pyrrolo[3,2-c]pyridin-6-yl)benzamide] | D (Category D: D < 25% degradation) | C (Category C: 25% ≤ C < 50% degradation) | D (Category D: D < 25% degradation) |
| CN1CCC[C@@H]1c1cc2cnc(NC(=O)c3ccc(N4CCC(N5CCN(c6cccc7c6C(=O)N(C6CCC(=O)NC6=O)C7=O)CC5)CC4)nc3)cc2[nH]1 (stereo partly drawn) [Example 64, 6-(4-(4-(2-(2,6-dioxopiperidin-3-yl)-1,3-dioxoisoindolin-4-yl)piperazin-1-yl)piperidin-1-yl)-N-(2-((R)-1-methylpyrrolidin-2-yl)-1H-pyrrolo[3,2-c]pyridin-6-yl)nicotinamide] | B (Category B: 50% ≤ B < 75% degradation) | B (Category B: 50% ≤ B < 75% degradation) | A (Category A: A ≥ 75% degradation) |
| CN1CCC[C@@H]1c1cc2cnc(NC(=O)c3ccc(-c4cnn(CCCC#Cc5cccc(C(=O)N[C@H]6CCC(=O)NC6=O)n5)c4)cc3)cc2[nH]1 [Example 62, N—((S)-2,6-dioxopiperidin-3-yl)-6-(5-(4-(4-((2-((R)-1-methylpyrrolidin-2-yl)-1H-pyrrolo[3,2-c]pyridin-6-yl)carbamoyl)phenyl)-1H-pyrazol-1-yl)pent-1-yn-1-yl) picolinamide] | B (Category B: 50% ≤ B < 75% degradation) | A (Category A: A ≥ 75% degradation) | B (Category B: 50% ≤ B < 75% degradation) |
| CN1CCC[C@@H]1c1cc2cnc(NC(=O)c3ccc(CCCC#Cc4cccc(C(=O)N[C@H]5CCC(=O)NC5=O)n4)cc3)cc2[nH]1 [Example 97, N—((S)-2,6-dioxopiperidin-3-yl)-6-(5-(4-((2-((R)-1-methylpyrrolidin-2-yl)-1H-pyrrolo[3,2-c]pyridin-6-yl)carbamoyl)phenyl)pent-1-yn-1-yl)picolinamide] | C (Category C: 25% ≤ C < 50% degradation) | B (Category B: 50% ≤ B < 75% degradation) | B (Category B: 50% ≤ B < 75% degradation) |
| CN1CCC[C@@H]1c1cc2cnc(NC(=O)CCCCCCNc3ccc4c(c3)C(=O)N(C3CCC(=O)NC3=O)C4=O)cc2[nH]1 (stereo partly drawn) [Example 27, 7-{[2-(2,6-dioxopiperidin-3-yl)-1,3-dioxoisoindol-5-yl]amino}-N-{2-[(2R)-1-methylpyrrolidin-2-yl]-1H-pyrrolo[3,2-c]pyridin-6-yl}heptanamide] | C (Category C: 25% ≤ C < 50% degradation) | C (Category C: 25% ≤ C < 50% degradation) | B (Category B: 50% ≤ B < 75% degradation) |
| CN1CCC[C@@H]1c1cc2cnc(NC(=O)c3ccc(OC4CCN(CC5CCN(c6cccc7c6CN(C6CCC(=O)NC6=O)C7=O)CC5)CC4)cc3)cc2[nH]1 (stereo in doubt) [Example 123, 4-((1-((1-(2-((rel-R)-2,6-dioxopiperidin-3-yl)-1-oxoisoindolin-4-yl)piperidin-4-yl)methyl)piperidin-4-yl)oxy)-N-(2-((R)-1-methylpyrrolidin-2-yl)-1H-pyrrolo[3,2-c]pyridin-6-yl)benzamide] | A (Category A: A ≥ 75% degradation) | A (Category A: A ≥ 75% degradation) | A (Category A: A ≥ 75% degradation) |
| C[C@H]1CN(CC2CCN(c3cccc4c3CN(C3CCC(=O)NC3=O)C4=O)CC2)CCN1c1ccc(C(=O)Nc2cc3[nH]c([C@H]4CCCN4C)cc3cn2)cn1 (stereo partly drawn) [Example 127, 6-((2S)-4-((1-(2-(2,6-dioxopiperidin-3-yl)-1-oxoisoindolin-4-yl)piperidin-4-yl)methyl)-2-methylpiperazin-1-yl)-N-(2-((R)-1-methylpyrrolidin-2-yl)-1H-pyrrolo[3,2-c]pyridin-6-yl)nicotinamide] | B (Category B: 50% ≤ B < 75% degradation) | B (Category B: 50% ≤ B < 75% degradation) | B (Category B: 50% ≤ B < 75% degradation) |
| CN1CCC[C@@H]1c1cc2cnc(NC(=O)c3ccc(OCCN4CCC5(CC4)CCN(c4ccc6c(c4)C(=O)N(C4CCC(=O)NC4=O)C6=O)CC5)cc3)cc2[nH]1 (stereo partly drawn) [Example 166, 4-(2-(9-(2-(2,6-dioxopiperidin-3-yl)-1,3-dioxoisoindolin-5-yl)-3,9-diazaspiro[5.5]undecan-3-yl)ethoxy)-N-(2-((R)-1-methylpyrrolidin-2-yl)-1H-pyrrolo[3,2-c]pyridin-6-yl)benzamide] | C (Category C: 25% ≤ C < 50% degradation) | A (Category A: A ≥ 75% degradation) | A (Category A: A ≥ 75% degradation) |
| CN1CCC[C@@H]1c1cc2cnc(NC(=O)c3cccc(NCC4CCN(c5cccc6c5C(=O)N(C5CCC(=O)NC5=O)C6=O)CC4)c3)cc2[nH]1 (stereo partly drawn) [Example 46, 3-(((1-(2-(2,6-dioxopiperidin-3-yl)-1,3-dioxoisoindolin-4-yl)piperidin-4-yl)methyl)amino)-N-(2-((R)-1-methylpyrrolidin-2-yl)-1H-pyrrolo[3,2-c]pyridin-6-yl)benzamide] | – | B (Category B: 50% ≤ B < 75% degradation) | B (Category B: 50% ≤ B < 75% degradation) |
